Results reported in patent publication US10204206B2, “Modelling of the action of an optical fiber in photodynamic therapy treatment, and assistance in the planning of said treatment” (STEBA MAOR SA, priority 2010, dated 2019).

Test system: prostate
Experiment: Clinical trials of photodynamic therapy of prostate cancer: action radius of the optical fiber fitted to the actual necrotic volume
Type: in vivo, patients
Details: 28 clinical trials; 4 mg/kg; optical fiber at 763 nm; insertion lengths 15 to 40 mm; accuracy 1.08 mm
From the text: In this study, the Applicant has validated its modeling method for the use of an optical fiber with specific wavelength of 763 nm, in association with the WST11 photosensitive agent, for the treatment of prostate cancer. It is easily understood that the principles of modeling, as well as those of assistance in planning resulting from this modeling, can be used for other combinations of optical fibers and photosensitive agents, and applied to the treatment of other organs.
In reference to FIG. 2, the modeling method 100 thus includes a preliminary step 110 of constructing a database of results from clinical trials conducted previously on a plurality of patients using the same photosensitive material at the same dosage, such as 4 mg/kg of WST11, associated with at least one optical fiber that we seek to model. This construction consists of storing one record per patient in the database with at least the following elements: […]
Once steps 120 and 130 have been carried out, the only thing left to do is to determine, in a step 140 referenced in FIG. 2, the action radius R of an optical fiber by correlation, for each patient in the database, with the total theoretical action volume calculated with the measured volume of the actual necrotic area. […]

SMILES: CC[C@H]1c2cc3[n-]c(c(CC(=O)OC)c4nc(cc5[n-]c(cc(n2)[C@@H]1C)c(C(C)=O)c5C)[C@@H](C)[C@@H]4CCC(=O)[O-])c(C(=O)NCCS(=O)(=O)[O-])c3C.[H+].[H+].[Pd+2] [WST11]
- average action radius R of an optical fiber (value for which theoretical volume was closest to the volume of the actual necrotic area): 7.49 mm
